# Test results reported in patent US6783949B1, “Processes for determining whether a test substance contains lipases or lipase inhibitors” (Aventis Pharma Deutschland GmbH, priority 1999, dated 2004).
# “And” between values parts separate entries of the source, which are not always exact repeats. Equal entries are not always repeated.
# Target: T1, HSL (Rattus norvegicus, UniProt P15304)
# T1 construct: The partially purified HSL can be stored at −70° C. for 4 to 6 weeks; from tissue; host or cells: rat epididymal fat cells (male Wistar rats)
# T1 sequence (P15304 1-768 isoform P15304-2): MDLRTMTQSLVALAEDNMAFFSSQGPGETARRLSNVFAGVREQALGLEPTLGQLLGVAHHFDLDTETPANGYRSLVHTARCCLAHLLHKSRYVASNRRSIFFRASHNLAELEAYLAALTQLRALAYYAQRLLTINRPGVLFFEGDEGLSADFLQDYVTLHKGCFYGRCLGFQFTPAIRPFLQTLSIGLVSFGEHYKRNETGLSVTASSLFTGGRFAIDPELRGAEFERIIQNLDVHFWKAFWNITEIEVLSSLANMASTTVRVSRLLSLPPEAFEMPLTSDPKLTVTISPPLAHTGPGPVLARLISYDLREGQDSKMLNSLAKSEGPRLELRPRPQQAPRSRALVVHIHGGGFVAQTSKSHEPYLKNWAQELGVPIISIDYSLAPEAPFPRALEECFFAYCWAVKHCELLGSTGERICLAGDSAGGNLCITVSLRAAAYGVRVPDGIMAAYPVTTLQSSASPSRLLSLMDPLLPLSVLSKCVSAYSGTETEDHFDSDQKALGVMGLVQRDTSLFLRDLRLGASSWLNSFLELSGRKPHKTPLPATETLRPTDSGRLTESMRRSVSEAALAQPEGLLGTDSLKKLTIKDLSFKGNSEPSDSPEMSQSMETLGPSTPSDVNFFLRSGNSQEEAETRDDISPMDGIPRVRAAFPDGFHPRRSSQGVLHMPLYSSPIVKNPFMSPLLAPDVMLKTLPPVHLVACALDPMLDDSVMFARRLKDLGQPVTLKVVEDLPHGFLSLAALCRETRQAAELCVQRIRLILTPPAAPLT
# Test: Indirect NAG assay (extinction increase at 481 nm)
# Assay type: biochemical
# Procedure: A typical reaction is carried out at 30° C. for 60 min, for example in 1.5 ml Eppendorf vessels or 96-hole plates. […] 180 μl of the substrate solution (20 μg/ml of phosphatidylcholine, 10 μg/ml of phosphatidylinositol, 50 μg/ml of NAG in assay buffer) are added. After a preincubation for 15 min at 30° C., 20 μl of HSL in assay buffer are pipetted in and the extinction is immediately measured (see above) at 481 nm in a cuvette photometer (0.5 ml cuvette) or microtiter plate reader. After a certain incubation time, which is variable and depends on the chosen enzyme concentration and can be between 2 and 240 minutes, in this case incubation at 30° C. for 60 min, the extinction is measured again. The increase in the extinction in the yellow region, in this case at 481 nm, is a measure of the enzyme activity.
# Isolated rat fat cells are obtained from epididymal fatty tissue from untreated male rats (Wistar, 220-250 g) by collagenase treatment according to published processes. The fat cells from 10 rats are washed three times by flotation with 50 ml each of homogenization buffer ([…], pH 7.4, 0.25 M sucrose, 1 mM ethylenediamine-N,N,N′,N′-tetraacetic acid (EDTA), 1 mM dithiothreitol (DTT), 10 μg/ml of leupeptin, 10 μg/ml of antipain, 20 μg/ml of pepstatin) and finally taken up in 10 ml of homogenization buffer. The fat cells are homogenized in a Teflon-in-glass homogenizer (Braun-Melsungen) by 10 strokes at 1500 rpm and 15° C. The homogenizate is centrifuged (Sorvall SM24 tubes, 5000 rpm, 10 min, 4° C.). The […] between the overlying fatty layer and the pellet is removed and the centrifugation is repeated. The […] resulting from this is centrifuged again (Sorvall SM24 tubes, 20,000 rpm, 45 min, 4° C.). […] After incubation for 60 min at 4° C. (shake at intervals of 15 min), the batch is centrifuged (Sorvall SM24 tubes, 3000 rpm, 10 min, 4° C.). The supernatant is brought to pH 5.2 by addition of glacial acetic acid and incubated at 4° C. for 30 min. […] The suspension is dialyzed overnight at 4° C. against 25 mM TRIS/HCl, pH 7.4, 50% glycerol, 1 mM DTT, and 10 μg/ml of leupeptin, pepstatin, and antipain and then applied to a hydroxylapatite column (0.1 g per 1 ml of suspension, equilibrated with 10 mM potassium phosphate, pH 7.0, 30% glycerol, 1 mM DTT). The column is washed with four volumes of equilibration buffer at a flow rate of 20 to 30 ml/h. The HSL is eluted with a volume of equilibration buffer which contains 0.5 M potassium phosphate, then dialyzed (see above) and concentrated 5 to 10 times by ultrafiltration (Amicon Diaflo PM 10 filter) at 4° C. The partially purified HSL can be stored at −70° C. for 4 to 6 weeks.
# 6 mg of phosphatidylcholine and 6 mg of phosphatidylinositol are dissolved in 1 ml of chloroform each. 10 mg of NAG are dissolved in 1 ml of chloroform. […] The chloroform (225 μl total volume) is completely removed by overblowing with a stream of N2. The dried substrate can be stored at 4° C. for up to three days. For the preparation of the phospholipid vesicles/micelles having intercalated NAG (on the test day), the dried substrate is taken up in 20 ml of assay buffer (25 mM TRIS/HCl, pH 7.4; 150 mM NaCl) and two ultrasonic treatments with an ultrasonic probe (Branson Sonifier type 11, standard microtip): 1st treatment setting 2, 2×1 min, in between in each case 1 min on ice; 2nd treatment setting 4, 2×1 min, in between in each case 1 min on ice. […] Before use as a substrate (within the next 2 h), the solution is additionally incubated on ice for 15 min.
# The assay is carried out at 30° C. for 60 min in 1.5 ml Eppendorf vessels or 96-hole plates.
smiles,measurement,value
O=C(CCCCCCCCCCCNc1ccc([N+](=O)[O-])c2nonc12)OCC(O)CO (racemic) [Compound 3],IC50,1520 nM and 2140 nM
